Patent US9635859B2, “Pesticidal compositions and processes related thereto” (Dow AgroSciences LLC, priority 2012, dated 2017)

Each compound was assayed on Beet Armyworm (Spodoptera exigua) (assay: Bioassays on BAW, 128-well diet tray assay). Conditions: percent mortality, second instar larvae, 50 μg/cm^2 on artificial diet, five to seven days, 25° C.; Table 3.
Format: in vivo
Description: Certain molecules disclosed in this document were tested against BAW and CEW and CL using procedures described in the following examples. In the reporting of the results, the “BAW & CEW & CL Rating Table” was used (See Table Section).
Bioassays on BAW (Spodoptera exigua)
Bioassays on BAW were conducted using a 128-well diet tray assay. one to five second instar BAW larvae were placed in each well (3 mL) of the diet tray that had been previously filled with 1 mL of artificial diet to which 50 μg/cm^2 of the test compound (dissolved in 50 μL of 90:10 acetone-water mixture) had been applied (to each of eight wells) and then allowed to dry. Trays were covered with a clear self-adhesive cover, and held at 25° C., 14:10 light-dark for five to seven days. Percent mortality was recorded for the larvae in each well; activity in the eight wells was then averaged. The results are indicated in the table entitled “Table 3: Assay Results” (See Table Section).

Row | SMILES | BAW Rating
1 | O=C(NCc1ccc(/C=C/C(c2cc(Cl)c(Cl)c(Cl)c2)C(F)(F)F)cc1Br)C1CC1 (stereo not shown) [CC26] | A (50-100)
2 | O=C(CC(F)(F)F)NCc1ccc(/C=C/C(c2cc(Cl)c(Cl)c(Cl)c2)C(F)(F)F)cc1F (stereo not shown) [CC27] | A (50-100)
3 | O=C(NCc1ccc(/C=C/C(c2cc(Cl)c(Cl)c(Cl)c2)C(F)(F)F)cc1F)C1CC1 (stereo not shown) [CC28] | A (50-100)
4 | O=C(C1CC1)N(Cc1ccccn1)Cc1ccc(/C=C/C(c2cc(Cl)c(Cl)c(Cl)c2)C(F)(F)F)cc1C(F)(F)F (stereo not shown) [CC29, (E)-N-(Pyridin-2-ylmethyl)-N-(4-(4,4,4-trifluoro-3-(3,4,5-trichlorophenyl)but-1-enyl)-2-(trifluoromethyl)benzyl)cyclopropanecarboxamide] | A (50-100)
5 | CS(=O)(=O)CCC(=O)NCc1ccc(/C=C/C(c2cc(Cl)c(Cl)c(Cl)c2)C(F)(F)F)cc1Cl (stereo not shown) [CC30, (E)-N-(2-Chloro-4-(4,4,4-trifluoro-3-(3,4,5-trichlorophenyl)but-1-en-1-yl)benzyl)-3-(methylsulfonyl)propanamide] | A (50-100)
6 | CCNC(=O)NCc1ccc(/C=C/C(c2cc(Cl)cc(Cl)c2)C(F)(F)F)cc1Cl (stereo not shown) [CC31, (E)-1-(2-Chloro-4-(3-(3,5-dichlorophenyl)-4,4,4-trifluorobut-1-en-1-yl)benzyl)-3-ethylurea] | B (More than 0-Less than 50)
7 | CCNC(=O)NCc1ccc(/C=C/C(c2cc(Cl)c(Cl)c(Cl)c2)C(F)(F)F)cc1C(F)(F)F (stereo not shown) [CC32] | A (50-100)
8 | CCNC(=O)NCc1ccc(/C=C/C(c2cc(Cl)c(Cl)c(Cl)c2)C(F)(F)F)cc1Br (stereo not shown) [CC33] | A (50-100)
9 | O=C(NCc1ccc(/C=C/C(c2cc(Cl)c(Cl)c(Cl)c2)C(F)(F)F)cc1Cl)N1CCOCC1 (stereo not shown) [CC34] | A (50-100)
10 | CN(C)C(=O)NCc1ccc(/C=C/C(c2cc(Cl)c(Cl)c(Cl)c2)C(F)(F)F)cc1Cl (stereo not shown) [CC36, (E)-3-(2-Chloro-4-(4,4,4-trifluoro-3-(3,4,5-trichlorophenyl)but-1-en-1-yl)benzyl)-1,1-dimethylurea] | A (50-100)
11 | CCNC(=S)NCc1ccc(/C=C/C(c2cc(Cl)c(Cl)c(Cl)c2)C(F)(F)F)cc1Cl (stereo not shown) [CC37, (E)-1-(2-Chloro-4-(4,4,4-trifluoro-3-(3,4,5-trichlorophenyl)but-1-en-1-yl)benzyl)-3-ethylthiourea] | A (50-100)
12 | C=CCNC(=S)NCc1ccc(/C=C/C(c2cc(Cl)c(Cl)c(Cl)c2)C(F)(F)F)cc1Cl (stereo not shown) [CC38] | A (50-100)
13 | FC(F)(F)C(/C=C/c1ccc(CNc2ccccn2)c(Cl)c1)c1cc(Cl)c(Cl)c(Cl)c1 (stereo not shown) [CC43, (E)-N-(2-Chloro-4-(4,4,4-trifluoro-3-(3,4,5-trichlorophenyl)but-1-en-1-yl)benzyl)pyridin-2-amine] | A (50-100)
14 | O=C(CC(F)(F)F)NCc1ncc(/C=C/C(c2cc(Cl)c(Cl)c(Cl)c2)C(F)(F)F)cc1Cl (stereo not shown) [CC44, (E)-N-((3-Chloro-5-(4,4,4-trifluoro-3-(3,4,5-trichlorophenyl)-but-1-en-1-yl)pyridin-2-yl)methyl)-3,3,3-trifluoropropanamide] | A (50-100)
15 | O=C(NCc1ncc(/C=C/C(c2cc(Cl)c(Cl)c(Cl)c2)C(F)(F)F)cc1Cl)C1CC1 (stereo not shown) [CC45] | A (50-100)
16 | O=C(NNc1ccc(/C=C/C(c2cc(Cl)c(Cl)c(Cl)c2)C(F)(F)F)cc1)C1CC1 (stereo not shown) [CC50, (E)-N′-(4-(4,4,4-Trifluoro-3-(3,4,5-trichlorophenyl)but-1-en-1-yl)phenyl)cyclopropanecarbohydrazide] | A (50-100)
17 | O=C(CC(F)(F)F)NNc1ccc(/C=C/C(c2cc(Cl)c(Cl)c(Cl)c2)C(F)(F)F)cc1 (stereo not shown) [CC51] | A (50-100)
18 | O=C(NOc1ccc(/C=C/C(c2cc(Cl)c(Cl)c(Cl)c2)C(F)(F)F)cc1)C1CC1 (stereo not shown) [CC52, (E)-N-(4-(4,4,4-Trifluoro-3-(3,4,5-trichlorophenyl)but-1-en-1-yl)phenoxy)cyclopropanecarboxamide] | A (50-100)
19 | O=C(CC(F)(F)F)NCc1ccc(/C=C\C(c2cc(Cl)c(Cl)c(Cl)c2)C(F)(F)F)cc1 (stereo not shown) [CC54, (Z)-3,3,3-Trifluoro-N-(4-(4,4,4-trifluoro-3-(3,4,5-trichlorophenyl)but-1-en-1-yl)benzyl)propanamide] | A (50-100)
20 | FC(F)(F)C(/C=C/c1ccc(-n2cncn2)cc1)c1cc(Cl)cc(Cl)c1 (stereo not shown) [DC1, (E)-1-(4-(3-(3,5-Dichlorophenyl)-4,4,4-trifluorobut-1-en-1-yl)phenyl)-1H-1,2,4-triazole] | A (50-100)
21 | FC(F)(F)C(/C=C/c1ccc(-n2cncn2)cc1)c1ccccc1 (stereo not shown) [DC3] | B (More than 0-Less than 50)
22 | FC(F)(F)C(/C=C/c1ccc(-n2cncn2)cc1)c1ccc(Cl)cc1 (stereo not shown) [DC4] | A (50-100)
23 | Fc1ccc(C(/C=C/c2ccc(-n3cncn3)cc2)C(F)(F)F)cc1 (stereo not shown) [DC7] | A (50-100)
24 | Fc1cc(F)cc(C(/C=C/c2ccc(-n3cncn3)cc2)C(F)(F)F)c1 (stereo not shown) [DC8] | A (50-100)
25 | Cc1cc(C)cc(C(/C=C/c2ccc(-n3cncn3)cc2)C(F)(F)F)c1 (stereo not shown) [DC11] | A (50-100)
26 | FC(F)(F)C(/C=C/c1ccc(-n2cncn2)cc1)c1ccc(Cl)c(Cl)c1 (stereo not shown) [DC12] | A (50-100)

Row | SMILES | BAW Rating
27 | FC(F)(F)c1cc(C(/C=C/c2ccc(-n3cncn3)cc2)C(F)(F)F)cc(C(F)(F)F)c1 (stereo not shown) [DC16] | A (50-100)
28 | COc1c(Cl)cc(C(/C=C/c2ccc(-n3cncn3)cc2)C(F)(F)F)cc1Cl (stereo not shown) [DC20] | A (50-100)
29 | N#Cc1cc(/C=C/C(c2cc(Cl)cc(C(F)(F)F)c2)C(F)(F)F)ccc1-n1cncn1 (stereo not shown) [DC33] | A (50-100)
30 | COc1c(Cl)cc(C(/C=C/c2ccc(-n3cncn3)c(C#N)c2)C(F)(F)F)cc1Cl (stereo not shown) [DC34] | A (50-100)
31 | N#Cc1cc(/C=C/C(c2cc(Cl)c(F)c(Cl)c2)C(F)(F)F)ccc1-n1cncn1 (stereo not shown) [DC35] | A (50-100)
32 | N#Cc1cc(/C=C/C(c2cc(Cl)cc(Cl)c2)C(F)(F)F)ccc1-n1cnc([N+](=O)[O-])n1 (stereo not shown) [DC37] | A (50-100)
33 | N#Cc1cc(/C=C/C(c2cc(Cl)cc(Cl)c2)C(F)(F)F)ccc1-n1cnc(N)n1 (stereo not shown) [DC38] | A (50-100)
34 | CC(=O)Nc1ncn(-c2ccc(/C=C/C(c3cc(Cl)cc(Cl)c3)C(F)(F)F)cc2C#N)n1 (stereo not shown) [DC39] | A (50-100)
35 | N#Cc1cc(/C=C/C(c2cc(Cl)c(Cl)c(Cl)c2)C(F)(F)F)ccc1-n1cnc([N+](=O)[O-])n1 (stereo not shown) [DC40, (E)-2-(3-Nitro-1H-1,2,4-triazol-1-yl)-5-(4,4,4-trifluoro-3-(3,4,5-trichlorophenyl)but-1-en-1-yl)benzonitrile] | A (50-100)
36 | N#Cc1cc(/C=C/C(c2cc(Cl)c(Cl)c(Cl)c2)C(F)(F)F)ccc1-n1cnc(N)n1 (stereo not shown) [DC41, (E)-2-(3-Amino-1H-1,2,4-triazol-1-yl)-5-(4,4,4-trifluoro-3-(3,4,5-trichlorophenyl)but-1-en-1-yl)benzonitrile] | A (50-100)
37 | N#Cc1cc(/C=C/C(c2cc(Cl)c(Cl)c(Cl)c2)C(F)(F)F)ccc1-n1cnc(N(C(=O)C2CC2)C(=O)C2CC2)n1 (stereo not shown) [DC42, (E)-N-(1-(2-Cyano-4-(4,4,4-trifluoro-3-(3,4,5-trichlorophenyl)but-1-en-1-yl)phenyl)-1H-1,2,4-triazol-3-yl)-N-(cyclopropanecarbonyl)cyclopropanecarboxamide] | A (50-100)
38 | N#Cc1cc(/C=C/C(c2cc(Cl)c(Cl)c(Cl)c2)C(F)(F)F)ccc1-n1cnc(NC(=O)C2CC2)n1 (stereo not shown) [DC43, (E)-N-(1-(2-Cyano-4-(4,4,4-trifluoro-3-(3,4,5-trichlorophenyl)but-1-en-1-yl)phenyl)-1H-1,2,4-triazol-3-yl)cyclopropanecarboxamide] | A (50-100)
39 | Cc1cc(/C=C/C(c2cc(Cl)cc(Cl)c2)C(F)(F)F)cc(C#N)c1-n1cncn1 (stereo not shown) [DC44] | A (50-100)
40 | Cc1cc(/C=C/C(c2cc(Cl)c(Cl)c(Cl)c2)C(F)(F)F)cc(C#N)c1-n1cncn1 (stereo not shown) [DC45] | A (50-100)
41 | N#Cc1cc(/C=C\C(c2cc(Cl)c(F)c(Cl)c2)C(F)(F)F)ccc1-n1cncn1 (stereo not shown) [DC46] | A (50-100)
42 | FC(F)(F)C(/C=C/c1ccc(-n2cncn2)c(Br)c1)c1cc(Cl)cc(Cl)c1 (stereo not shown) [DC47] | A (50-100)
43 | Fc1cc(/C=C/C(c2cc(Cl)cc(Cl)c2)C(F)(F)F)ccc1-n1cncn1 (stereo not shown) [DC48] | A (50-100)
44 | FC(F)(F)C(/C=C/c1ccc(-n2cncn2)c(Cl)c1)c1cc(Cl)c(Cl)c(Cl)c1 (stereo not shown) [DC49] | A (50-100)
45 | FC(F)(F)C(/C=C/c1ccc(-n2cncn2)c(Cl)c1)c1cc(Cl)cc(Cl)c1 (stereo not shown) [DC50] | A (50-100)
46 | FC(F)(F)c1cc(/C=C/C(c2cc(Cl)cc(Cl)c2)C(F)(F)F)ccc1-n1cncn1 (stereo not shown) [DC51] | A (50-100)
47 | CNc1cc(/C=C/C(c2cc(Cl)cc(Cl)c2)C(F)(F)F)ccc1-n1cncn1 (stereo not shown) [DC57, (E)-5-(3-(3,5-Dichlorophenyl)-4,4,4-trifluorobut-1-en-1-yl)-N-methyl-2-(1H-1,2,4-triazol-1-yl)aniline] | A (50-100)
48 | CCOC(=O)c1cc(/C=C/C(c2cc(Cl)cc(Cl)c2)C(F)(F)F)ccc1-n1cncn1 (stereo not shown) [DC60] | A (50-100)
49 | Cc1cc(/C=C/C(c2cc(Cl)cc(Cl)c2)C(F)(F)F)ccc1-n1cncn1 (stereo not shown) [DC62] | A (50-100)
50 | Cc1cc(/C=C/C(c2cc(Cl)c(Cl)c(Cl)c2)C(F)(F)F)ccc1-n1cncn1 (stereo not shown) [DC63] | A (50-100)
51 | FC(F)(F)C(/C=C/c1ccc(-n2cncn2)cc1Cl)c1cc(Cl)c(Cl)c(Cl)c1 (stereo not shown) [DC66] | A (50-100)
52 | FC(F)(F)C(/C=C/c1ccc(-n2cncn2)cc1Cl)c1cc(Cl)cc(Cl)c1 (stereo not shown) [DC67] | A (50-100)
